Consider four molecules from US8722849B2, “Polypeptides” (Novo Nordisk A/S, priority 2011, dated 2014).

Starred links: 1 amine or outer side, 2 acyl side, 3 side chain; linkers in the order of their positions; H or OH if unused. Positions of bridges follow the written chain, without caps; N, C: chain ends. Residues, ends and D or L forms follow the SMILES beside them. *: point of attachment. C20 diacid = O=C(O)CCCCCCCCCCCCCCCCCCC(=O)*; C18 diacid = O=C(O)CCCCCCCCCCCCCCCCC(=O)*; γGlu = O=C(O)[C@H](CCC(=O)[*:2])N[*:1] Where only a bound is given, the exact number is not on record here.

This data set is described as follows: Assay (III) ThT fibrillation assay for physical stability. The data set is classed as physicochemical. Put shortly: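 Freshly prepared formulations, pH-adjusted, with 1 μM ThT; four or eight replicates incubated at 37 °C under 960 rpm orbital shaking. Fluorescence (ex 444/em 485 nm) read every 20 min; […]. Peptide concentration measured by RP-HPLC before and after the run.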

For `CC[C@H](C)[C@H](NC(=O)[C@@H]1CCCN1C(=O)CNC(=O)[C@H](Cc1ccccc1)NC(=O)[C@H](CC(N)=O)NC(=O)[C@H](CC(N)=O)NC(=O)[C@H](CO)NC(=O)[C@H](CO)NC(=O)[C@H](Cc1c[nH]cn1)NC(=O)[C@H](CCCNC(=N)N)NC(=O)[C@H](CC(C)C)NC(=O)[C@H](Cc1ccccc1)NC(=O)[C@H](CCC(=O)O)NC(=O)[C@H](C)NC(=O)[C@H](CC(C)C)NC(=O)[C@H](CCCNC(=N)N)NC(=O)[C@H](CCC(N)=O)NC(=O)[C@@H](NC(=O)[C@H](C)NC(=O)[C@@H]1CSSC[C@H](NC(=O)[C@H](CCCCN)NC(=O)CC[C@H](NC(=O)CCCCCCCCCCCCCCCCCCC(=O)O)C(=O)O)C(=O)N[C@@H](CC(N)=O)C(=O)N[C@@H]([C@@H](C)O)C(=O)N[C@@H](C)C(=O)N[C@@H]([C@@H](C)O)C(=O)N1)[C@@H](C)O)C(=O)N[C@@H](CC(C)C)C(=O)N1CCC[C@H]1C(=O)N1CCC[C@H]1C(=O)N[C@H](C(=O)N[C@@H](CC(N)=O)C(=O)N[C@H](C(=O)NCC(=O)N[C@@H](CO)C(=O)N[C@@H](CC(N)=O)C(=O)N[C@H](C(=O)N[C@@H](Cc1ccc(O)cc1)C(N)=O)[C@@H](C)O)C(C)C)[C@@H](C)O` [Example 50, N-alpha-[(S)-4-Carboxy-4-(19-carboxynonadecanoylamino)butyryl]-[Glu14,Arg17]-pramlintide] ({C20 diacid-γGlu}-KCNTATCATQRLAEFLRHSSNNFGPILPPTNVGSNTY-NH2; disulfide 2-7 (inferred)), under “ThT fibrillation assay”, the “ThT pH 4.0 lag time” value was above 45 h and the “ThT pH 4.0 lag time (h)” value was above 45 h.
As for `CC[C@H](C)[C@H](NC(=O)[C@@H]1CCCN1C(=O)CNC(=O)[C@H](Cc1ccccc1)NC(=O)[C@H](CC(N)=O)NC(=O)[C@H](CC(N)=O)NC(=O)[C@H](CO)NC(=O)[C@H](CO)NC(=O)[C@H](Cc1c[nH]cn1)NC(=O)[C@H](CCCNC(=N)N)NC(=O)[C@H](CC(C)C)NC(=O)[C@H](Cc1ccccc1)NC(=O)[C@H](CCC(=O)O)NC(=O)[C@H](C)NC(=O)[C@H](CC(C)C)NC(=O)[C@H](CCCNC(=N)N)NC(=O)[C@H](CCC(N)=O)NC(=O)[C@@H](NC(=O)[C@H](C)NC(=O)[C@@H]1CSSC[C@H](NC(=O)[C@H](CCCCN)NC(=O)[C@H](Cc2c[nH]cn2)NC(=O)CC[C@H](NC(=O)CCCCCCCCCCCCCCCCC(=O)O)C(=O)O)C(=O)N[C@@H](CC(N)=O)C(=O)N[C@@H]([C@@H](C)O)C(=O)N[C@@H](C)C(=O)N[C@@H]([C@@H](C)O)C(=O)N1)[C@@H](C)O)C(=O)N[C@@H](CC(C)C)C(=O)N1CCC[C@H]1C(=O)N1CCC[C@H]1C(=O)N[C@H](C(=O)N[C@@H](CC(N)=O)C(=O)N[C@H](C(=O)NCC(=O)N[C@@H](CO)C(=O)N[C@@H](Cc1c[nH]cn1)C(=O)N[C@H](C(=O)N[C@@H](Cc1ccc(O)cc1)C(N)=O)[C@@H](C)O)C(C)C)[C@@H](C)O` [Example 71, N-alpha-[(S)-4-Carboxy-4-(17-carboxyheptadecanoylamino)butyryl]-His-[Glu14,Arg17,His35]-pramlintide] ({C18 diacid-γGlu}-HKCNTATCATQRLAEFLRHSSNNFGPILPPTNVGSHTY-NH2; disulfide 3-8 (inferred); C-terminus assumed), where the note is “ThT fibrillation assay”, the “ThT pH 4.0 lag time” value is listed as above 45 h and the “ThT pH 4.0 lag time (h)” value is above 45 h.
Regarding `CC[C@H](C)[C@H](NC(=O)[C@@H]1CCCN1C(=O)CNC(=O)[C@H](Cc1ccccc1)NC(=O)[C@H](CC(N)=O)NC(=O)[C@H](CCC(N)=O)NC(=O)[C@H](CO)NC(=O)[C@H](CO)NC(=O)[C@H](Cc1c[nH]cn1)NC(=O)[C@H](Cc1c[nH]cn1)NC(=O)[C@H](CC(C)C)NC(=O)[C@H](Cc1ccccc1)NC(=O)[C@H](CCC(=O)O)NC(=O)[C@H](C)NC(=O)[C@H](CC(C)C)NC(=O)[C@H](CCCNC(=N)N)NC(=O)[C@H](CCC(N)=O)NC(=O)[C@@H](NC(=O)[C@H](C)NC(=O)[C@@H]1CSSC[C@H](NC(=O)[C@H](CCCCN)NC(=O)CC[C@H](NC(=O)CCCCCCCCCCCCCCCCCCC(=O)O)C(=O)O)C(=O)N[C@@H](CC(N)=O)C(=O)N[C@@H]([C@@H](C)O)C(=O)N[C@@H](C)C(=O)N[C@@H]([C@@H](C)O)C(=O)N1)[C@@H](C)O)C(=O)N[C@@H](CC(C)C)C(=O)N1CCC[C@H]1C(=O)N1CCC[C@H]1C(=O)N[C@H](C(=O)N[C@@H](CC(N)=O)C(=O)N[C@H](C(=O)NCC(=O)N[C@@H](CO)C(=O)N[C@@H](Cc1c[nH]cn1)C(=O)N[C@H](C(=O)N[C@@H](Cc1ccc(O)cc1)C(N)=O)[C@@H](C)O)C(C)C)[C@@H](C)O` [Example 117, N-alpha-[(S)-4-Carboxy-4-(19-carboxynonadecanoylamino)butyryl]-[Glu14,His17,Gln21,His35)-pramlintide] ({C20 diacid-γGlu}-KCNTATCATQRLAEFLHHSSQNFGPILPPTNVGSHTY-NH2; disulfide 2-7 (inferred); C-terminus assumed), the “ThT pH 4.0 lag time” value (Table 8) is above 45 h, the “ThT pH 4.0 lag time” value (Table 9) is reported as above 45 h and the “ThT pH 4.0 lag time” value (ThT fibrillation assay) was above 45 h. Under “ThT fibrillation assay”, the “ThT pH 4.0 lag time (h)” value is recorded as above 45 h.
As to `CC[C@H](C)[C@H](NC(=O)[C@H](CCC(=O)O)NC(=O)CNC(=O)[C@H](Cc1ccccc1)NC(=O)[C@H](CC(N)=O)NC(=O)[C@H](CC(N)=O)NC(=O)[C@H](CO)NC(=O)[C@H](CO)NC(=O)[C@H](CCCNC(=N)N)NC(=O)[C@H](Cc1c[nH]cn1)NC(=O)[C@H](CC(C)C)NC(=O)[C@H](Cc1ccccc1)NC(=O)[C@H](CCC(=O)O)NC(=O)[C@H](C)NC(=O)[C@H](CC(C)C)NC(=O)[C@H](CCCNC(=N)N)NC(=O)[C@H](CCC(N)=O)NC(=O)[C@@H](NC(=O)[C@H](C)NC(=O)[C@@H]1CSSC[C@H](NC(=O)[C@H](Cc2c[nH]cn2)NC(=O)CC[C@H](NC(=O)CCCCCCCCCCCCCCCCCCC(=O)O)C(=O)O)C(=O)N[C@@H](CC(N)=O)C(=O)N[C@@H]([C@@H](C)O)C(=O)N[C@@H](C)C(=O)N[C@@H]([C@@H](C)O)C(=O)N1)[C@@H](C)O)C(=O)N[C@@H](CC(C)C)C(=O)N[C@@H](CO)C(=O)N[C@@H](CCCNC(=N)N)C(=O)N[C@H](C(=O)N[C@@H](CC(N)=O)C(=O)N[C@H](C(=O)NCC(=O)N[C@@H](CO)C(=O)N[C@@H](CC(N)=O)C(=O)N[C@H](C(=O)N[C@@H](Cc1ccc(O)cc1)C(N)=O)[C@@H](C)O)C(C)C)[C@@H](C)O` [Example 7, N-alpha-[(S)-4-Carboxy-4-(19-carboxynonadecanoylamino)butyryl]-[His1,Glu14,His17,Arg18,Glu25,Ser28,Arg29]-pramlintide] ({C20 diacid-γGlu}-HCNTATCATQRLAEFLHRSSNNFGEILSRTNVGSNTY-NH2; disulfide 2-7 (inferred); C-terminus assumed), under “ThT fibrillation assay”, the “ThT pH 4.0 lag time (h)” value was 0 h.
